# Source: ChEMBL document CHEMBL1201862, “PubChem BioAssay data set” (2004)
# Activity calls are given as the source filed them. No stated cut-off is given here; in the data, actives have a measured IC50 and inactives only a lower limit.
# Target: Envelope glycoprotein gp160 (Human immunodeficiency virus 1, UniProt Q6QLK5)
# Assay: inhibitors of HIV fusion peptide binding, primary screen, biochemical, uHTS, fluorescence dequenching (AID 1986)
# Chain of Envelope glycoprotein gp160 (Q6QLK5 whole entry, the tested form may be a part): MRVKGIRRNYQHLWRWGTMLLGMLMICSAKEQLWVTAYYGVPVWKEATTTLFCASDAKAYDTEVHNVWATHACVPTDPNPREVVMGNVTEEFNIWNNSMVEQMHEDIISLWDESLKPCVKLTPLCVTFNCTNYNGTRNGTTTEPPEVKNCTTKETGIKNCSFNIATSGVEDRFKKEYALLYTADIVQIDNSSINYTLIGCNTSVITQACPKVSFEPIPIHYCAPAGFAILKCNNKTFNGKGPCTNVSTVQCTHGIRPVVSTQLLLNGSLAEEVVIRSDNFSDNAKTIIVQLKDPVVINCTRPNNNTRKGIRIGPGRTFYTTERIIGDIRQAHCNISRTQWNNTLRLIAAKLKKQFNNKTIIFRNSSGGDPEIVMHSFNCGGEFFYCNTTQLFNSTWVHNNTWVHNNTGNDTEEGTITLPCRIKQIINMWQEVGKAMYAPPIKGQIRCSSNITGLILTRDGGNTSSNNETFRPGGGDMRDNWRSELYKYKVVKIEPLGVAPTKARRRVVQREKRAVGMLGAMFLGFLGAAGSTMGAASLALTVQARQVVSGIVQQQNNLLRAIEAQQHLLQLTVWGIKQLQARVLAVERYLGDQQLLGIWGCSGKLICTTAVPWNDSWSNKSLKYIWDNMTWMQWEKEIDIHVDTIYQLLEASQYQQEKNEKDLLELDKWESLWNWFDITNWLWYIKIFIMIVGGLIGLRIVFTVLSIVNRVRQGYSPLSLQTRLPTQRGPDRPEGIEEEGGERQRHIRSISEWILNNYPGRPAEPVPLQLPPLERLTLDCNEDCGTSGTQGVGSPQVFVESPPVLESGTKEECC
row,Compound,IC50
1,CC(C(=O)Nc1ccc(O)c(C(=O)O)c1)N1C(=O)/C(=C/c2cccs2)SC1=S (stereo not drawn),18.8 µM (active)
2,O=C1NC(=O)/C(=C/c2ccc(-c3cc(C(=O)O)ccc3Cl)o2)S1,25.8 µM (active)
3,COCCN1C(=O)/C(=C/c2ccc(OCc3ccc(C(=O)O)cc3)c(OC)c2)S/C1=N\c1ccccc1,15.1 µM (active)
